{"source": "patent US7754773B2", "about": "“Composition and synthesis of new reagents for inhibition of HIV replication” (priority 2005, dated 2010)", "key": {"[1]": {"test_system": "pNL-Luc-E-R- virus", "assay": "Infectivity of virus from treated producer cells on 293T cells", "format": "cell-based, HIV-1", "settings": "293T cells infected 48 hours with 1 ng virus; producer cells treated with 3.125-50 μM", "protocol": "Infectivity was determined by infecting 293T cells for 48 hours with 1 ng virus produced from the producer cells in the experiments shown in FIG. 21A. The infectivity of the sample of virus produced without APOBEC3G was normalized to 100%, and data was representative of three independent experiments."}, "[2]": {"test_system": "APOBEC3F", "assay": "APOBEC3F-HA level co-expressed with pNL4-3-LucE-R-, Western blot", "format": "cell-based", "settings": "3.75, 7.5, 15 or 30 fmoles APOBEC3F-HA; 5 uM", "protocol": "(§1) To evaluate the effect of Vif inhibitor 1 on levels of APOBEC3G and APOBEC3F proteins, a dose-response experiment was performed. pNL4-3-LucE-R- was co-expressed with 3.75, 7.5, 15, or 30 fmoles APOBEC3G-HA (or APOBEC3F-HA) in the absence (DMSO) or presence (5 uM) of Vif inhibitor 1. The pNL4-3-LucE-R- ΔVif with the same amounts of APOBEC3G or F in the presence of DMSO were used as controls. APOBEC3G or APOBEC3F expression was confirmed by Western blot using an α HA anti body, with cyclin T1 used as the internal control."}, "[3]": {"test_system": "APOBEC3G", "assay": "Western blot of APOBEC3G in transfected 293T cell lysates", "format": "cell-based, human", "settings": "293T cells, pNL-Luc-E-R-, pVSV-G, APOBEC3G-HA; 3.125-50 μM; 24 hours post-drug", "protocol": "(§2) To determine the effect of Vif inhibitor 1 on expression of Vif and APOBC3G, 293T cells were transfected with pNL-Luc-E-R-, pVSV-G, and 15 fmoles APOBEC3G-HA. 4 hours post-transfection, the cells were treated with 3.125, 6.25, 12.5, 25, 50 μM Vif inhibitor 1 or DMSO equivalent as a control. Twenty-four hours post-drug addition, 293T total cell lysates (15 ug) were prepared, and protein lysates examined for APOBEC3G, Vif and, cyclin T1."}, "[4]": {"molecular_target": "T1, pNLA1-YFP (Vif activity) (Human immunodeficiency virus type 1 group M subtype B, UniProt P69723)", "T1 construct": "YFP; expressed in transfected cells; host or cells: 293T cells", "T1 sequence (P69723 whole entry)": "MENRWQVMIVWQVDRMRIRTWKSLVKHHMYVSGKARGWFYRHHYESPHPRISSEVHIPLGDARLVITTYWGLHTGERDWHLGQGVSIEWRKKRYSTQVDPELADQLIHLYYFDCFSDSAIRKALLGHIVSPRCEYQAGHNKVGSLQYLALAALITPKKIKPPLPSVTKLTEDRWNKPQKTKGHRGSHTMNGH", "assay": "pNLA1-YFP fluorescence in transfected 293T cells", "format": "cell-based, HIV-1", "settings": "3.125-50 μM, with or without 15 fmoles pAPOBEC3G-HA, 24 hours", "protocol": "293T cells transfected with 50 fmoles pNLA1-YFP or pNLA1-YFP with 15 fmoles pAPOBEC3G-HA were treated 4 HRS post-transfection with 3.125, 6.25, 12.5, 25, 50 μM Vif inhibitor 1 or DMSO equivalent (0). Twenty-four hours post-drug addition, 293T total cell lysates were prepared and normalized to equal protein amounts prior to being monitored, in triplicate, for YFP fluorescence. Curve fits for full dose responses of Vif inhibitor 1 are shown, and calculation of “% Vif activity” for concentration of compound Vif inhibitor 1 was determined using Grafit software."}, "[5]": {"molecular_target": "T2, Vif (Human immunodeficiency virus type 1 group M subtype B, UniProt P12504)", "T2 construct": "pNL4-3 (Vif) was used at 50 fmol, and APOBEC3G at 15 fmol; expressed in transfected cells", "T2 sequence (P12504 whole entry)": "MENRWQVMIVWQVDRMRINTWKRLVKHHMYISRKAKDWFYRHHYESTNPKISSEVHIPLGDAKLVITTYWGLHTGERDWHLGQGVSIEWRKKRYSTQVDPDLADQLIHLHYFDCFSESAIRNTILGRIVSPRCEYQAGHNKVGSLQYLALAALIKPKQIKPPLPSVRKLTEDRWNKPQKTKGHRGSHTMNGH", "assay": "Vif protein levels in H9 versus MT4 cells infected with pNL4-3Luc-E-R-", "format": "cell-based, HIV-1", "settings": "50 μM; 48 hours", "protocol": "To determine whether there was a difference in the effect of Vif inhibitor 1 on Vif protein levels in permissive versus non-permissive cells, H9 and MT4 cells were infected using a spinoculation procedure with the virus equivalent of 1 μg pNL4-3 Luc-E-R- or Δ Vif pNL4-3 Luc-E-R- (as measured using p24 ELISA). Immediately following infection, H9 or MT4 cells were washed and incubated in complete RPMI medium with 10% FCS containing DMSO (0.5%) or 50 μM Vif inhibitor 1 (also 0.5% DMSO) for 48 hours. H9 or MT4 total cell lysates were then prepared, and 20 μg of lysate was examined for the presence of cyclin T1, endogenous APOBEC3G, p24, and Vif, the latter two being indicative of virus infection."}, "[6]": {"molecular_target": "T2, Vif", "assay": "Western blot of Vif in transfected 293T cell lysates", "format": "cell-based, HIV-1", "settings": "293T cells, pNL-Luc-E-R-, pVSV-G, APOBEC3G-HA; 3.125-50 μM; 24 hours post-drug", "protocol": "as §2"}, "[7]": {"test_system": "APOBEC3G", "assay": "APOBEC3G-HA level co-expressed with pNL4-3-LucE-R-, Western blot", "format": "cell-based, human", "settings": "3.75, 7.5, 15 or 30 fmoles APOBEC3G-HA; 5 uM", "protocol": "as §1"}, "[8]": {"test_system": "HIV-1 (X4-tropic HIV-1 variant (HIV-1LAI))", "assay": "Dose-response of RT activity in HIV-1 infected H9 cells", "format": "cell-based", "settings": "H9 cells infected with HIV-1LAI; for RT activity / infectivity, dose response: 0, 1, 5, 10, 25 or 50 μM", "protocol": "To evaluate the efficacy of Vif inhibitor 1 on RT activity, a dose-response experiment was conducted in infected H9 cells.\nBriefly, H9 cells plated at 2×10^5 per well in a 24 well plate were treated overnight with DMSO, plus 0, 1, 5, 10, 25 or 50 μM Vif inhibitor 1 (all at 0.5% DMSO) then infected with HIV-1 (X4-tropic HIV-1 variant (HIV-1LAI)) at 2×10^5 cpm RT per well. All cells were maintained in the presence of DMSO or Vif inhibitor 1 for 14-21 days and viral replication monitored by measurement of reverse transcriptase activity in culture supernatants every second day. Calculation of % relative infectivity was determined on day 7, which was previously determined to be the peak of viral infectivity. Range correction involved fitting cpm data to a 2 parameter equation where the lower limit is 0, i.e. background correction, and the upper data limit is 100, i.e. the data is range corrected. Grafit software was used for the curve fit and calculation of the I.C.50 value."}, "[9]": {"molecular_target": "T2, Vif", "assay": "Vif protein levels in H9 cells infected with pNL4-3Luc-E-R-", "format": "cell-based, HIV-1", "settings": "12.5, 25 or 50 μM, 48 hours", "protocol": "To evaluate the effect of Vif inhibitor 1 on levels of Vif protein, H9 cells were infected with pNL4-3Luc-E-R- using a spinoculation procedure with the virus equivalent of 1 μg pNL4-3 Luc-E-R- or Δ Vif pNL4-3 Luc-E-R- (as measured using p24 ELISA). […] H9 total cell lysates were then prepared, and 20 μg of lysate examined for the presence of cyclin T1, endogenous APOBEC3G, p24, and Vif, the latter two indicative of virus infection."}}, "data": [{"smiles": "COc1ccccc1NC(=O)c1ccccc1Sc1ccc([N+](=O)[O-])cc1", "note": "[Vif inhibitor 1, 2-(4-Nitrophenylthio)-N-(2-methoxyphenyl)benzamide]", "values": [{"measurement": "Infectivity of virus produced from treated producer cells", "setting": "[1]", "value": "decrease infectivity in a dose-dependent manner"}, {"measurement": "APOBEC3F level", "setting": "[2]", "value": "increases"}, {"measurement": "APOBEC3G expression", "setting": "[3]", "value": "increases APOBEC3G expression"}, {"measurement": "pNLA1-YFP fluorescence (% Vif activity)", "setting": "[4]", "value": "dose-dependent decrease in pNLA1-YFP only in the presence of APOBEC3G"}, {"measurement": "Levels of Vif protein, non-permissive H9 versus permissive MT4 cells", "setting": "[5]", "value": "significantly reduces levels of Vif protein in non-permissive H9 cells compared to permissive MT4 cells"}, {"measurement": "Vif expression", "setting": "[6]", "value": "decreases Vif expression"}, {"measurement": "APOBEC3G level", "setting": "[7]", "value": "increases"}, {"measurement": "RT activity / infectivity, dose response", "setting": "[8]", "value": "inhibits RT activity in a dose dependent manner"}, {"measurement": "RT activity / infectivity, dose response", "setting": "[8]; listed as Vif Inhibitor 1", "value": "dose-dependent decrease in infectivity"}, {"measurement": "IC50", "setting": "[8]; Human immunodeficiency virus 1, 168 h, 0-50 μM, determined on day 7, read-out: I.C.50 of RT activity (% relative infectivity)", "value": "~6.4", "unit": "µM"}, {"measurement": "Levels of Vif protein in H9 cells", "setting": "[9]", "value": "significantly reduces levels of Vif protein"}]}]}
